The values that follow come from patent US8158656B2, “2-indolinone derivatives as multi-target protein kinase inhibitors and histone deacetylase inhibitors” (Shenzhen Chipscreen Biosciences Ltd., priority 2008, dated 2012).

The target in experiment [1] is T1, c-Kit (Homo sapiens, UniProt P10721).
T1 construct: purchased Cell Signaling
In words: c-KIT kinase ELISA bioassay. Particulars: ELISA kinase assay, 20 μM ATP. Format: biochemical. How it is done:
This assay is used to measure in vitro kinase activity of c-KIT in an ELISA assay.
• 1. Streptavidin coated, 96-well, white plate • 2. Phospho-Tyrosine Monoclonal Antibody (P-Tyr-100) (Cell Signaling) • 3. HRP-labeled anti-mouse IgG (Upstate) • 4. HTScan™ Tyrosine Kinase Buffer (4×) • 5. DTT (1000×. 1.25 M) • 6. ATP (10 mM) • 7. KDR (Tyr996) Biotinylated Peptide Substrate (Cell Signaling) • 8. c-KIT Kinase (recombinant, human) (Cell Signaling) • 9. Wash Buffer: 1× PBS, 0.05% Tween-20 (PBS/T) • 10. Bovine Serum Albumin (BSA) • 11. Stop Buffer: 50 mM EDTA pH 8 • 12. Enhanced chemiluminescence (ECL) (Amersham) Procedure for performing the assay in 96-well plate: • 1. Add 10 μl 10 mM ATP to 1.25 ml 6 μM substrate peptide. Dilute the mixture with dH20 to 2.5 ml to make 2× ATP/substrate cocktail ([ATP]=40 μM, [substrate]=3 μm). • 2. Immediately transfer enzyme from −80° C. to ice. Allow enzyme to thaw on ice. • 3. Microcentrifuge briefly at 4° C. to bring liquid to the bottom of the vial. Return immediately to ice. • 4. Add 10 μl of DTT (1.25 M) to 2.5 ml of 4× HTScan™ Tyrosine Kinase Buffer (240 mM HEPES pH 7.5, 20 mM MgCl2, 20 mM MnCl2, 12 μM Na3VO4) to make DTT/Kinase buffer. • 5. Transfer 1.25 ml of DTT/Kinase buffer to enzyme tube to make 4× reaction cocktail ([enzyme]=4 ng/μL in 4× reaction cocktail). • 6. Incubate 12.5 μl of the 4× reaction cocktail with 12.5 μl/well of prediluted compound of interest (usually around 10 μM) for 5 minutes at room temperature. • 7. Add 25 μl of 2× ATP/substrate cocktail to 25 μl/well preincubated reaction cocktail/compound. Final Assay Conditions for a 50 μl Reaction: • 60 mM HEPES pH 7.5 • 5 mM MgCl2 • 5 mM MnCl2 • 3 μM Na3VO4 • 1.25 mM DTT • 20 μM ATP • 1.5 μM peptide • 100 ng c-KIT Kinase • 8. Incubate reaction plate at room temperature for 30 minutes. • 9. Add 50 μl/well Stop Buffer (50 mM EDTA, pH 8) to stop the reaction. • 10. Transfer 25 μl of each reaction and 75 μl dH2O/well to a 96-well streptavidincoated plate and incubate at room temperature for 60 minutes. • 11. Wash three times with 200 μl/well PBS/T • 12. Dilute primary antibody, Phospho-Tyrosine Monoclonal Antibody (P-Tyr-100), 1:1000 in PBS/T with 1% BSA. Add 100 μl/well of primary antibody. • 13. Incubate at room temperature for 60 minutes. • 14. Wash three times with 200 μl/well PBS/T • 15. Dilute HRP labeled anti-mouse IgG 1:500 in PBS/T with 1% BSA. Add 100 μl/well diluted antibody. • 16. Incubate at room temperature for 30 minutes. • 17. Wash five times with 200 μl/well PBS/T. • 18. Add 100 μl/well ECL Solution. • 19. Detect luminescence with appropriate Plate Reader. Flt3 Bioassay

The target in experiment [2] is VEGFR2 (Homo sapiens, UniProt P35968). Nature of the experiment: VEGF receptor kinase ELISA bioassay. It is filed as biochemical. Particulars: ELISA kinase assay, 200 μM ATP. Background: ELISA stands for enzyme-linked immunosorbent assay.
VEGFR2, sequence (P35968 807-1356): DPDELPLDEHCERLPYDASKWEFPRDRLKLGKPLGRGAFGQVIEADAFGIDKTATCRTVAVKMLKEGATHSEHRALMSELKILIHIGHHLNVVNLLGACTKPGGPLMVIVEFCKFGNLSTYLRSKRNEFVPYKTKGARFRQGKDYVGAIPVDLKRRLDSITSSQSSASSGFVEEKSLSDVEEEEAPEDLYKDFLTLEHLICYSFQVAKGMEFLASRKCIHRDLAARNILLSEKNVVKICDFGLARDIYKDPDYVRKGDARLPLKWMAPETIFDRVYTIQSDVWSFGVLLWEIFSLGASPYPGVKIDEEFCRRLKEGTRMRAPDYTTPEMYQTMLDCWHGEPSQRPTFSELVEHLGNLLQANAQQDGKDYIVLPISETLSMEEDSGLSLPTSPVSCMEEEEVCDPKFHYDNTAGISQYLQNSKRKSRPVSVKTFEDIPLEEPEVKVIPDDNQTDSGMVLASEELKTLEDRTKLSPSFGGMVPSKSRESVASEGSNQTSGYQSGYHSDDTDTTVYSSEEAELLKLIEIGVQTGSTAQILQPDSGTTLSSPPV
Experiment [3] relates to Class I HDAC. In words: P21 reporter assay in HeLa cells. It is filed as cell-based, human. Particulars: for EC50: 24 hours; for Class I HDAC (P21 reporter assay) % Max Resp of CS055 at 3 μM: relative to CS055 at 3 μM. How it is done: (§1) HDAC subtype selectivity inhibition assay of tested compounds was carried out by several reporter gene assays experiments. Briefly, HeLa cells were seeded in 96-well plates the day before transfection to give a confluence of 50-80%. Cells were transfected with one of reporter gene plasmid containing a promoter sequence or response element upstream of a luciferase gene construct using FuGene6 transfection reagent according to the manufacturer's instruction (Roche). The promoters or response elements including p21-promoter, gdf11-promoter, MEF-binding element (MEF2), Nur77-promoter were fused upstream to the luciferase gene reporter construct. For normalizing the transfection efficiency, a GFP expression plasmid was cotransfected. Cells were allowed to express protein for 24 hours followed by addition of individual compounds or the vehicle (DMSO). 24 hours later the cells were harvested, and the luciferase assay and GFP assay were performed using corresponding assay kits according to the manufacturer's instructions (Promega).
Background: A reporter such as luciferase makes a cellular process visible.

Experiment [4] relates to HDAC4/5. Nature of the experiment: MEF2 reporter assay in HeLa cells. The settings on record: for EC50: 24 hours; for HDAC4/5 (MEF2 reporter assay) % Max Resp of CS055 at 3 μM: relative to CS055 at 3 μM. It is filed as cell-based, human. How it is done:
as §1

In experiment [5] the test system is HL60. Nature of the experiment: Tumor cell proliferation (MTS), HL60. Particulars: Homo sapiens, HL-60, HL60, 72 hours. It is filed as cell-based. How it is done: (§2) Measurement of in vivo cell proliferation:
(§3) Tumor cells were trypsinized and plated into 96-well plates at 3,000 per well and incubated in complete medium with 10% FBS for 24 hours. Compounds were added over a final concentration range of 100 μmol/L to 100 nmol/L in 0.1% DMSO and incubated for 72 hours in complete medium. The effects on proliferation were determined by addition of MTS reagent (Promega) according to the instruction, incubation for 2 hours at 37° C. in CO2 incubator, and record the absorbance at 490 nm using an ELISA plate reader.

For experiment [6], the system named is Hut-78. In words: Tumor cell proliferation (MTS), Hut-78. Particulars: Homo sapiens, HuT78, Hut-78, 72 hours. It is filed as cell-based. The method, then: as §2, §3
For experiment [7], the system named is U937. Nature of the experiment: Tumor cell proliferation (MTS), U937. Format: cell-based. Particulars: Homo sapiens, U-937, U937, 72 hours. How it is done:
as §2, §3

The test system of experiment [8] is A549. In words: Tumor cell proliferation (MTS), A549. It is filed as cell-based. Particulars: Homo sapiens, A549, 72 hours. The method, then:
as §2, §3

Experiment [9] deals with MCF7. Nature of the experiment: Tumor cell proliferation (MTS), MCF7. Format: cell-based. Particulars: Homo sapiens, MCF7, 72 hours. The method, then: as §2, §3

In general, IC50 refers to the midpoint of a concentration-inhibition curve. A word on the EC50: it is the concentration needed to bring the measured effect to its halfway point. As a reminder, the GI50 is the concentration that inhibits growth by half.

T1 sequence (P10721 26-976): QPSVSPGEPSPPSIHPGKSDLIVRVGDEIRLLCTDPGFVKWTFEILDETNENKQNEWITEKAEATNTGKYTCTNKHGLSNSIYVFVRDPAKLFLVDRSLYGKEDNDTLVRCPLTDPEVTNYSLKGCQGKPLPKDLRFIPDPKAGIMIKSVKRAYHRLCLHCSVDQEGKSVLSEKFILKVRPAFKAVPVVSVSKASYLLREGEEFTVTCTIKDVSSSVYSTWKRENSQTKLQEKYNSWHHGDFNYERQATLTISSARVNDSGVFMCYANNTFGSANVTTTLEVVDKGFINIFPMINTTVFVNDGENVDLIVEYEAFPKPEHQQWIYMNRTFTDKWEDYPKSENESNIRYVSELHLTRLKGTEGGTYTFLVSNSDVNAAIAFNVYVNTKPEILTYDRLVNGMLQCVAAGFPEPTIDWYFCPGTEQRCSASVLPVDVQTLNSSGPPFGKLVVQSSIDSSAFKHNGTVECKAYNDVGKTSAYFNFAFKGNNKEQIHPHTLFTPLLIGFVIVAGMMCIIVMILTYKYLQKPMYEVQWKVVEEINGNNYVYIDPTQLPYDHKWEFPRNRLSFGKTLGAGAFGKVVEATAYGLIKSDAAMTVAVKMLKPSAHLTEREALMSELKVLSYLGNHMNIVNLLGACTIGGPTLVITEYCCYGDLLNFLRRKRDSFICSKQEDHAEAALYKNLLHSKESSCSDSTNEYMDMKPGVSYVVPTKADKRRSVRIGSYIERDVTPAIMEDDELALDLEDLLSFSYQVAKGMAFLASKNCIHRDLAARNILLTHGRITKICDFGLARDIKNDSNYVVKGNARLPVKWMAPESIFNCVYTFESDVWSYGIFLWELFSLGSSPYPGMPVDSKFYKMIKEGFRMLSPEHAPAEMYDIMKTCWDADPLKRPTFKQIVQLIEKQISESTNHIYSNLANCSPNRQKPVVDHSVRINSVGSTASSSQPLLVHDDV

Regarding `Cc1[nH]c(/C=C2\C(=O)Nc3ccc(F)cc32)c(C)c1C(=O)NCCNc1ccc(C(=O)Nc2ccccc2N)cn1` [Example 3, (Z)-N-(2-aminophenyl)-6-(2-(2-((5-fluoro-2-oxoindolin-3-ylidene)methyl)-3,5-dimethyl-1H-pyrrole-4-carboxamido)ethylamino)nicotinamide], the IC50 in experiment [1] was determined as 157 nM; in [2], 11 nM. Moreover, the EC50 in experiment [3] worked out at 2.3 µM; in [4], 2.2 µM. Further, the “Class I HDAC (P21 reporter assay) % Max Resp of CS055 at 3 μM” value in [3] amounted to 131.7%. Further, the “HDAC4/5 (MEF2 reporter assay) % Max Resp of CS055 at 3 μM” value in experiment [4] amounted to 83.2%. Also, the GI50 in experiment [5] was 4.15 µM; in experiment [6], 1.77 µM; in experiment [7], over 60 µM; in experiment [8] it was over 60 µM; in [9], over 60 µM.

In the case of `Cc1[nH]c(/C=C2\C(=O)Nc3ccc(F)cc32)c(C)c1C(=O)NCCCCNc1ccc(C(=O)Nc2ccccc2N)cn1` [Example 9, (Z)-N-(2-aminophenyl)-6-(4-(2-((5-fluoro-2-oxoindolin-3-ylidene)methyl)-3,5-dimethyl-1H-pyrrole-4-carboxamido)butylamino)nicotinamide], the results for the IC50 in [1] and in experiment [2] were 23 nM and 35 nM, respectively. In addition, the concentration for a half-maximal effect (EC50) in [3] was determined as 13.4 µM; in experiment [4] it was 20 µM. In addition, the “Class I HDAC (P21 reporter assay) % Max Resp of CS055 at 3 μM” value in experiment [3] worked out at 89.1%. In [4], the “HDAC4/5 (MEF2 reporter assay) % Max Resp of CS055 at 3 μM” value worked out at 53.6%. For the same molecule, the GI50 in experiment [5] is 1.27 µM; in experiment [6], 1.67 µM; in experiment [7] it was over 60 µM; in [8] it was over 60 µM; in experiment [9], over 60 µM.

With `Cc1[nH]c(/C=N/N=C2\C(=O)Nc3ccc(F)cc32)c(C)c1C(=O)NCCNc1ccc(C(=O)Nc2ccccc2N)cn1` [Example 4, N-(2-aminophenyl)-6-(2-(2-(((5-fluoro-2-oxoindolin-3-ylidene)hydrazono)-methyl)-3,5-dimethyl-1H-pyrrole-4-carboxamido)ethylamino)nicotinamide], the IC50 in [1] is over 1000 nM; in [2] it was 12 nM. Further, the “Class I HDAC (P21 reporter assay) % Max Resp of CS055 at 3 μM” value in experiment [3] is 3.3%. For the same molecule, in experiment [4], the “HDAC4/5 (MEF2 reporter assay) % Max Resp of CS055 at 3 μM” value was found to be 4.9%. The GI50 in experiment [5], in [6], in experiment [7], in experiment [8] and in experiment [9] was over 60 µM each time.

As for `Cc1[nH]c(/C=N/N=C2\C(=O)Nc3ccc(F)cc32)c(C)c1C(=O)NCCCNc1ccc(C(=O)Nc2ccccc2N)cn1` [Example 7, N-(2-aminophenyl)-6-(3-(2-(((5-fluoro-2-oxoindolin-3-ylidene)hydrazono)-methyl)-3,5-dimethyl-1H-pyrrole-4-carboxamido)propylamino)nicotinamide], the IC50 in [1] is over 1000 nM; in experiment [2], 634 nM. Also, the “Class I HDAC (P21 reporter assay) % Max Resp of CS055 at 3 μM” value in experiment [3] amounted to 6.2%. The “HDAC4/5 (MEF2 reporter assay) % Max Resp of CS055 at 3 μM” value in experiment [4] is 2.6%. Besides, the GI50 was 7.91 µM in experiment [5]; over 60 µM in [6]; over 60 µM in [7]; over 60 µM in [8]; over 60 µM in experiment [9].

For `Cc1[nH]c(/C=C2\C(=O)Nc3ccc(F)cc32)c(C)c1C(=O)NCCCCNc1ccc(C(=O)Nc2ccc(F)cc2N)cn1` [Example 19, (Z)-N-(2-amino-4-fluorophenyl)-6-(4-(2-((5-fluoro-2-oxoindolin-3-ylidene)-methyl)-3,5-dimethyl-1H-pyrrole-4-carboxamido)butylamino)nicotinamide], the IC50 was 65 nM in experiment [1] and 157 nM in experiment [2]. Also, the “Class I HDAC (P21 reporter assay) % Max Resp of CS055 at 3 μM” value in [3] was 2.3%. Moreover, the “HDAC4/5 (MEF2 reporter assay) % Max Resp of CS055 at 3 μM” value in [4] is given as 1.9%. The GI50 in experiment [5], in [6], in [7], in experiment [8] and in [9] was over 60 µM in each case.

For `Cc1[nH]c(/C=N/N=C2\C(=O)Nc3ccc(F)cc32)c(C)c1C(=O)NCCCNc1ccc(C(=O)Nc2ccc(F)cc2N)cn1` [Example 17, N-(2-amino-4-fluorophenyl)-6-(3-(2-(((5-fluoro-2-oxoindolin-3-ylidene)-hydrazono)methyl)-3,5-dimethyl-1H-pyrrole-4-carboxamido)propylamino)nicotinamide], the IC50 in experiment [1] and in experiment [2] was over 1000 nM in each case. Moreover, in experiment [3], the “Class I HDAC (P21 reporter assay) % Max Resp of CS055 at 3 μM” value is given as 3.4%. The “HDAC4/5 (MEF2 reporter assay) % Max Resp of CS055 at 3 μM” value in experiment [4] worked out at 10.8%. The concentration for 50% growth inhibition (GI50) in [5], in [6], in experiment [7], in experiment [8] and in experiment [9] was over 60 µM throughout.

On to `Cc1[nH]c(/C=N/N=C2\C(=O)Nc3ccc(F)cc32)c(C)c1C(=O)NCCCCNc1ccc(C(=O)Nc2ccc(F)cc2N)cn1` [Example 20, N-(2-amino-4-fluorophenyl)-6-(4-(2-(((5-fluoro-2-oxoindolin-3-ylidene)-hydrazono)methyl)-3,5-dimethyl-1H-pyrrole-4-carboxamido)butylamino)nicotinamide], for which the half-inhibitory concentration (IC50) in experiment [1] and in experiment [2] was over 1000 nM in each case. The “Class I HDAC (P21 reporter assay) % Max Resp of CS055 at 3 μM” value in experiment [3] is recorded as 2.8%. The “HDAC4/5 (MEF2 reporter assay) % Max Resp of CS055 at 3 μM” value in experiment [4] came to 16.3%. For the same molecule, the GI50 in experiment [5], in [6], in [7], in [8] and in experiment [9] was over 60 µM throughout.

As to `Cc1[nH]c(/C=N/N=C2\C(=O)Nc3ccc(F)cc32)c(C)c1C(=O)NCCCCNc1ccc(C(=O)Nc2ccccc2N)cn1` [Example 10, N-(2-aminophenyl)-6-(4-(2-(((5-fluoro-2-oxoindolin-3-ylidene)hydrazono)-methyl)-3,5-dimethyl-1H-pyrrole-4-carboxamido)butylamino)nicotinamide], the IC50 in experiment [1] and in [2] was over 1000 nM each time. Further, in experiment [3], the “Class I HDAC (P21 reporter assay) % Max Resp of CS055 at 3 μM” value is 7.3%. For the same molecule, the “HDAC4/5 (MEF2 reporter assay) % Max Resp of CS055 at 3 μM” value in [4] is 12.8%. In addition, the GI50 in [5] was 6.28 µM; in experiment [6] it was over 60 µM; in experiment [7] it was over 60 µM; in [8] it was over 60 µM; in experiment [9] it was over 60 µM.
